Test results from ChEMBL document CHEMBL3526022, “Which metabolites circulate?” (Drug Metab Dispos, 2013).
Counter-ions that a name gives are not always drawn.

Tests used:
[1] = physchem
[2] = species: Homo sapiens; test: Unbound hepatobiliary clearance in human treated with propranolol; assay type: ADME, organism-based; settings: in vivo
[3] = species: Homo sapiens; test: Unbound renal clearance in human treated with propranolol; assay type: ADME, organism-based, Kidney; settings: in vivo
[4] = Fraction unbound in human treated with propranolol; assay type: ADME, organism-based; settings: in vivo
[5] = Systemic clearance in human treated with propranolol; assay type: ADME, organism-based; settings: in vivo
[6] = test system: Homo sapiens; test: Unbound hepatobiliary clearance in healthy human treated with chlorpromazine at 10 mg, iv bolus dose and 25, 50 and 100 mg, po; assay type: ADME, organism-based; settings: in vivo
[7] = test system: Homo sapiens; test: Unbound renal clearance in healthy human treated with chlorpromazine at 10 mg, iv bolus dose and 25, 50 and 100 mg, po; assay type: ADME, organism-based, Kidney; settings: in vivo
[8] = Systemic clearance in healthy human treated with chlorpromazine at 10 mg, iv bolus dose and 25, 50 and 100 mg, po; assay type: ADME, organism-based; settings: in vivo
[9] = Fraction unbound in healthy human treated with chlorpromazine at 10 mg, iv bolus dose and 25, 50 and 100 mg, po; assay type: ADME, organism-based; settings: in vivo
[10] = species: Homo sapiens; test: Unbound hepatobiliary clearance in psychiatric patient treated with clozapine; assay type: ADME, organism-based; settings: in vivo
[11] = species: Homo sapiens; test: Unbound renal clearance in psychiatric patient treated with clozapine; assay type: ADME, organism-based, Kidney; settings: in vivo
[12] = Systemic clearance in psychiatric patient treated with clozapine; assay type: ADME, organism-based; settings: human, in vivo
[13] = Fraction unbound in psychiatric patient treated with clozapine; assay type: ADME, organism-based; settings: human, in vivo
[14] = Clearance in iv dosed patient with renal impairment; assay type: ADME, organism-based; settings: human, in vivo
[15] = Fraction unbound in healthy human at 10 mg, iv bolus dose and 25, 50 and 100 mg, po; assay type: ADME, organism-based; settings: in vivo
[16] = species: Homo sapiens; settings: in vivo
[17] = species: Homo sapiens; settings: in vivo; remark: listed apart in the source
[18] = clinical; settings: human, in vivo, iv
[19] = clinical; settings: human, in vivo, po
[20] = Fraction unbound in human; assay type: ADME, organism-based; settings: in vivo
[21] = species: Homo sapiens; test: Unbound hepatobiliary clearance in human treated with darifenacin; assay type: ADME, organism-based; settings: in vivo
[22] = species: Homo sapiens; test: Unbound renal clearance in human treated with darifenacin; assay type: ADME, organism-based, Kidney; settings: in vivo
[23] = Systemic clearance in human; assay type: ADME, organism-based; settings: in vivo
[24] = test system: Homo sapiens; test: Unbound hepatobiliary clearance in human at 120 mg, po; assay type: ADME, organism-based; settings: in vivo
[25] = Systemic clearance in human at 120 mg, po; assay type: ADME, organism-based; settings: in vivo
[26] = Fraction unbound in human at 120 mg, po; assay type: ADME, organism-based; settings: in vivo
[27] = test system: Homo sapiens; test: Unbound hepatobiliary clearance in human treated with dilitiazem at 120 mg, po; assay type: ADME, organism-based; settings: in vivo
[28] = test system: Homo sapiens; test: Unbound hepatobiliary clearance in human at 4 mg, po twice daily for 8 days; assay type: ADME, organism-based; settings: in vivo, 192 h
[29] = test system: Homo sapiens; test: Unbound renal clearance in human at 4 mg, po twice daily for 8 days; assay type: ADME, organism-based, Kidney; settings: in vivo, 192 h
[30] = Systemic clearance in human at 4 mg, po twice daily for 8 days; assay type: ADME, organism-based; settings: in vivo

Compound | pKa [1] | further results
CN1CCN(c2ccccc2/C=C2\SCCN(c3ccc(Cl)c(Cl)c3)C2=O)CC1 [ELZASONAN] | 11.5 | 
CCOc1cc([C@@H](CS(C)(=O)=O)N2C(=O)c3cccc(NC(C)=O)c3C2=O)ccc1OC | 9.8 | 
CC(C)NCC(O)COc1ccc(O)c2ccccc12 (stereo not given) [4-HYDROXYPROPRANOLOL SULFATE] |  | CL free [2]: 248 mL/min/kg; CL free [3]: 5 mL/min/kg; fraction unbound [4]: 0.26; clearance [5]: 66 mL/min/kg
COc1ccc(-n2nc(C(N)=O)c3c2C(=O)N(c2ccc(N4CCCCC4=O)cc2)CC3)cc1 [APIXABAN] | 8.56 | 
CCOc1cc(CC(=O)N[C@@H](CC(C)C)c2ccccc2N2CCCCC2)ccc1C(=O)O [REPAGLINIDE] | 14.8 | 
CN(C)CCCN1c2ccc(O)cc2Sc2ccc(Cl)cc21 [7-HYDROXYCHLORPROMAZINE] |  | CL free [6]: 400 mL/min/kg; CL free [7]: 6 mL/min/kg; clearance [8]: 6.1 mL/min/kg; fraction unbound [9]: 0.015
CCc1nn(CCCN2CCN(c3cccc(Cl)c3)CC2)c(=O)n1CCOc1ccccc1 [NEFAZODONE] | 13.8 | 
CNCC[C@H](Oc1cccc2ccccc12)c1cccs1 [DULOXETINE] | 9.97 | 
Cc1c(O)cccc1C(=O)N[C@@H](CSc1ccccc1)[C@H](O)CN1C[C@H]2CCCC[C@H]2C[C@H]1C(=O)NC(C)(C)C | 8.57 | 
CCC(C)n1ncn(-c2ccc(N3CCN(c4ccc(OCC5COC(Cn6cncn6)(c6ccc(Cl)cc6Cl)O5)cc4)CC3)cc2)c1=O (stereo not given) [ITRACONAZOLE] | 15 | 
COc1ccc2c3c1O[C@H]1[C@@H](O)C=C[C@H]4[C@@H](C2)N(C)CC[C@@]341 [CODEINE] | 9.48 | 
CNCCC=C1c2ccccc2CCc2ccccc21 [NORTRIPTYLINE] | 13.9 | 
CCc1cc2c(cc1CC)CC(NC[C@H](O)c1ccc(O)c3[nH]c(=O)ccc13)C2 [INDACATEROL] | 14.6 | 
Cc1c(OCC(F)(F)F)ccnc1C[S+]([O-])c1nc2ccccc2[nH]1 (stereo not given) [LANSOPRAZOLE] | 11.2 | 
Cc1ncc2n1-c1ccc(Cl)cc1C(c1ccccc1F)=NC2 [MIDAZOLAM] | 13.6 | 
O=C(C1CCCCC1)N1CC(=O)N2CCc3ccccc3C2C1 (stereo not given) [PRAZIQUANTEL] | 15 | 
COc1ccccc1Oc1c(NS(=O)(=O)c2ccc(C(C)(C)C)cc2)nc(-c2ncccn2)nc1OCCO [BOSENTAN] | 8.36 | 
C#C[C@]1(O)CC[C@H]2[C@@H]3[C@H](C)CC4=C(CCC(=O)C4)[C@H]3CC[C@@]21C [TIBOLONE] | 15 | 
CN1CC(=O)N2[C@H](c3ccc4c(c3)OCO4)c3[nH]c4ccccc4c3C[C@@H]2C1=O | 9.87 | 
C#Cc1cccc(Nc2ncnc3cc(OCCOC)c(OCCOC)cc23)c1 [ERLOTINIB] | 13.9 | 
Clc1ccc2c(c1)N=C(N1CCNCC1)c1ccccc1N2 [N-DESMETHYLCLOZAPINE] |  | CL free [10]: 1.2 mL/min/kg; CL free [11]: 5 mL/min/kg; clearance [12]: 0.6 mL/min/kg; fraction unbound [13]: 0.097

Compound | pKa [1] | further results
O=C(c1ccc(F)cc1)C1CCN(CCn2c(=O)[nH]c3ccccc3c2=O)CC1 [KETANSERIN] | 14.1 | 
CCCSc1nc(N[C@@H]2C[C@H]2c2ccc(F)c(F)c2)c2nnn([C@@H]3C[C@H](OCCO)[C@@H](O)[C@H]3O)c2n1 [TICAGRELOR] | 14.3 | 
COc1ccccc1OCC(O)CN1CCN(CC(=O)Nc2c(C)cccc2C)CC1 (stereo not given) [RANOLAZINE] | 9.59 | 
O=C(O[C@@H]1C[C@@H]2C[C@H]3C[C@H](C1)N2CC3=O)c1c[nH]c2ccccc12 [DOLASETRON] | 14.6 | 
COc1ccc(CCN2CCC(Nc3nc4ccccc4n3Cc3ccc(F)cc3)CC2)cc1 [ASTEMIZOLE] | 10.1 | 
Cc1onc(-c2ccccc2)c1-c1ccc(S(N)(=O)=O)cc1 [VALDECOXIB] | 13.1 | 
N#CC[C@H](C1CCCC1)n1cc(-c2ncnc3[nH]ccc23)cn1 [RUXOLITINIB] | 14.9 | 
CC(C)CCC(=O)CC1c2ccccc2C(=O)N1c1ccc2ccc(Cl)nc2n1 (stereo not given) [PAGOCLONE] | 15 | 
COc1ccc2[nH]c([S+]([O-])Cc3ncc(C)c(OC)c3C)nc2c1 (stereo not given) [OMEPRAZOLE] | 13.2 | 
O[C@H](CNC[C@@H](O)[C@H]1CCc2cc(F)ccc2O1)[C@@H]1CCc2cc(F)ccc2O1 (relative stereo) | 14 | 
C[C@H](NC(=O)C(C)(C)Oc1ccc(C(F)(F)F)cn1)[C@@H](Cc1ccc(Cl)cc1)c1cccc(C#N)c1 [TARANABANT] | 15.1 | 
CCc1cccc2cc(C(O)CNC(C)(C)C)oc12 (stereo not given) [BUFURALOL] | 14.3 | 
COc1ccc2c(c1)[C@]13CCCC[C@@H]1[C@H](C2)N(C)CC3 [DEXTROMETHORPHAN] | 10.1 | 
O=C(NCC1CCCCN1)c1cc(OCC(F)(F)F)ccc1OCC(F)(F)F (stereo not given) [FLECAINIDE] | 9.28 | 
COc1cccc(C2(O)CCCCC2CN(C)C)c1 (racemic) [TRAMADOL] | 10 | 
O=C1CC2(CCCC2)CC(=O)N1CCCCN1CCN(c2ncccn2)CC1 [BUSPIRONE] | 12.5 | clearance [14]: 28 mL/min/kg
CCn1cc(C(=O)O)c(=O)c2ccc(C)nc21 [NALIDIXIC ACID] | 13 | 
O=C1Nc2ccc(Cl)cc2[C@@](C#CC2CC2)(C(F)(F)F)O1 [EFAVIRENZ] | 7.18 | 
COc1ccc(C(=O)Nc2ccccc2CCC2CCCCN2C)cc1 (stereo not given) [ENCAINIDE] | 8.34 | 
CC(NC(C)(C)C)C(=O)c1cccc(Cl)c1 (stereo not given) [BUPROPION] | 15.4 | 
COc1ccnc(C[S+]([O-])c2nc3ccc(OC(F)F)cc3[nH]2)c1OC (stereo not given) [PANTOPRAZOLE] | 7.69 | 

Compound | pKa [1] | further results
CN(Cc1cc(Br)cc(Br)c1N)C1CCCCC1 [BROMHEXINE] | 15.1 | 
CC(C)(O)c1ccccc1CC[C@@H](SCC1(CC(=O)O)CC1)c1cccc(/C=C/c2ccc3ccc(Cl)cc3n2)c1 [MONTELUKAST] | 15.9 | 
CN(C)CCCN1c2ccccc2Sc2ccc(Cl)cc21 [CHLORPROMAZINE] |  | Fu [15]: 0.0013; CL free [16]: 14000 mL/min/kg; CL free [17]: 1 mL/min/kg; clearance [18]: 18.3 mL/min/kg
CN1C2CCCC1CC(NC(=O)c1nn(C)c3ccccc13)C2 (stereo not given) [GRANISETRON] | 8.9 | 
CC(C)(C)c1ccc(C(O)CCCN2CCC(C(O)(c3ccccc3)c3ccccc3)CC2)cc1 (stereo not given) [TERFENADINE] | 15 | 
CC(C)C(=O)Nc1ccc([N+](=O)[O-])c(C(F)(F)F)c1 [FLUTAMIDE] | 12.9 | CL/F [19]: > 600 mL/min/kg
NC(=O)C(c1ccccc1)(c1ccccc1)[C@@H]1CCN(CCc2ccc3c(c2)CCO3)C1 [DARIFENACIN] | 13.5 | fraction unbound [20]: 0.02
NC(=O)C(c1ccccc1)(c1ccccc1)[C@@H]1CCN(CCc2ccc3c(c2)C(O)CO3)C1 (stereo not given in full) |  | CL free [21]: 60 mL/min/kg; CL free [22]: 47 mL/min/kg
Cc1ccc(-c2cc(C(F)(F)F)nn2-c2ccc(S(N)(=O)=O)cc2)cc1 [CELECOXIB] | 14.2 | 
CC(C)NCC(O)COc1cccc2ccccc12 (stereo not given) [PROPRANOLOL] |  | clearance [23]: 20 mL/min/kg; fraction unbound [20]: 0.15
COc1ccc([C@@H]2Sc3ccccc3N(CCN(C)C)C(=O)[C@@H]2OC(C)=O)cc1 [DILTIAZEM] |  | CL free [24]: 48 mL/min/kg; CL/F [25]: 12 mL/min/kg; fraction unbound [26]: 0.25
CN(CCOc1ccc(CC2SC(=O)NC2=O)cc1)c1ccccn1 (stereo not given) [ROSIGLITAZONE] | 10.3 | 
CNCC[C@@H](Oc1ccccc1C)c1ccccc1 [ATOMOXETINE] | 10.3 | 
Fc1ccc([C@@H]2CCNC[C@H]2COc2ccc3c(c2)OCO3)cc1 [PAROXETINE] | 10.3 | 
Clc1ccc2c(c1)CCc1cccnc1C2=C1CCNCC1 [DESLORATADINE] | 9.27 | 
CCc1ccc(CCOc2ccc(CC3SC(=O)NC3=O)cc2)nc1 (stereo not given) [PIOGLITAZONE] | 13.7 | 
OCCOCCN1CCN(C2=Nc3ccccc3Sc3ccccc32)CC1 [QUETIAPINE] | 11.2 | 
COCc1c(C(C)C)nc(C(C)C)c(/C=C/[C@@H](O)C[C@@H](O)CC(=O)O)c1-c1ccc(F)cc1 [CERIVASTATIN] | 14.4 | 
Clc1ccc2c(c1)C(N1CCNCC1)=Nc1ccccc1O2 [AMOXAPINE] | 11.2 | 
CNCCN1C(=O)[C@H](OC(C)=O)[C@H](c2ccc(OC)cc2)Sc2ccccc21 |  | CL free [27]: 25 mL/min/kg
Cc1ccc(O)c([C@H](CCN(C(C)C)C(C)C)c2ccccc2)c1 [TOLTERODINE] | 14.7 | CL free [28]: 1190 mL/min/kg; CL free [29]: 1 mL/min/kg; CL/F [30]: 44 mL/min/kg
